Test results: paper PMC12471299, “Secondary Metabolites of the Marine Sponge-Derived Fungus Aspergillus subramanianii 1901NT-1.40.2 and Their Antimicrobial and Anticancer Activities” (Marine Drugs, 2025)
Converted amounts (≈) assume the structure as drawn. “And” between values parts separate entries of the source, which are not always exact repeats. Equal values may be shown once.

Assays:
S. aureus ATCC 29213 = tested on: S. aureus ATCC 29213; set-up: method as in PMID 29642369; conditions: cited from earlier work
[1] = tested on: malignant glioma U251 cells; set-up: method as in PMID 29642369; conditions: cited from earlier work
Candida albicans KMM 455 [2] = assay: Biofilm formation assay (MTT); assay type: cell-based; conditions: C. albicans, 18 h
How it was run: (§1)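 Compound tested from 100 µM downward; 1% DMSO in PBS as negative control. Planktonic growth read as OD at 620 nm after 18 h; 18 h biofilm formation quantified with MTT at 570 nm. Values as percent of control, reported as minimal concentration giving 50% reduction (MIC50).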

[3] = tested on: Escherichia coli VKPM (B-7935); assay: Biofilm formation assay (MTT); assay type: cell-based; conditions: E. coli, 18 h
How it was run: as §1

[4] = tested on: methicillin-resistant S. aureus (MRSA); set-up: method as in PMID 29642369; conditions: cited from earlier work
[5] = Cell viability assay (MTT); assay type: cell-based, rat; conditions: rat, H9c2 cardiomyocytes, read-out: Cytotoxicity IC50; for IC50 at 24 h: H9c2, 24 h; for IC50 at 48 h: H9c2, 48 h
How it was run: (§2)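 Cells were seeded (H9c2 3 × 10^3, MCF-10A and MDA-MB-231 5 × 10^3, HaCaT 1 × 10^4 cells/well), left 24 h, then exposed to compounds up to 100 µM for 24 h or 48 h at 37 °C, 5% CO2. MTT read-out; viability given as percent of DMSO control.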

H9c2 cardiomyocytes = assay: Cell viability assay (MTT); assay type: cell-based, rat
How it was run: as §2

E. faecalis ATCC 29212 = tested on: E. faecalis ATCC 29212; set-up: method as in PMID 29642369; conditions: cited from earlier work
[6] = tested on: malignant glioma T98G cells; set-up: method as in PMID 29642369; conditions: cited from earlier work
HT29 cells = tested on: HT29 cells; set-up: method as in PMID 29642369; conditions: cited from earlier work
[7] = tested on: MCF-7 breast cancer cells; assay: Cell viability assay (MTT); assay type: cell-based, human
[8] = tested on: MCF-10A breast epithelial cells; assay: Cell viability assay (MTT); assay type: cell-based, human; conditions: MCF10A
How it was run: as §2

HaCaT keratinocytes = assay: Cell viability assay (MTT); assay type: cell-based, human
How it was run: as §2

MCF-7 cells = tested on: MCF-7 cells; set-up: method as in PMID 29642369; conditions: cited from earlier work
Candida albicans KMM 455 [9] = assay: Antimicrobial assay, growth inhibition (optical density); assay type: cell-based; conditions: C. albicans, 18 h; for MIC50: Candida albicans, KMM455, 18 h
How it was run: (§3)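 Growth: OD 620 nm, 18 h, compound ≤100 µM; biofilm […]: MTT, OD 570 nm, 18 h. Cells pregrown on MH agar, 37 °C, 24 h. Gentamicin/amphotericin B as positive controls. Reported as MIC50 vs 1% DMSO in PBS.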

[10] = tested on: Staphylococcus aureus ATCC 21027; assay: as above; assay type: cell-based; conditions: S. aureus, 18 h; for MIC50: Staphylococcus aureus, ATCC21027, 18 h
How it was run: as §3

For `COC1=C(c2c[nH]c3ccccc23)C(=O)C(CC=C(C)C)=C(c2c[nH]c3ccccc23)C1=O` [Compound 6, kumbicin D], which “antibacterial activity” value (S. aureus ATCC 29213) is on record?
Its value is “not active”.

What about the “effect on cells” value ([1]; U251, at 100 µM) of the same compound?
The value was “weak effects”.

What about the “Biofilm formation, MIC50” value (Candida albicans KMM 455 [2]) of the same compound?
The value was 8.36 ± 0.95 µM.

And the “Biofilm formation, MIC50” value [3]?
The value was 10.34 ± 0.98 µM.

And the “antibacterial activity” value ([4]; MRSA)?
The value was “not active”.

And the IC50 at 24 h [5]?
Its IC50 at 24 h is 72.2 ± 4.1 µM.

And the IC50 at 48 h [5]?
Its IC50 at 48 h is 65.4 ± 2.1 µM.

What about the cell viability (H9c2 cardiomyocytes; H9c2, 24 h, 1.0 µM) of the same compound?
The cell viability was 104.0 ± 12.9 % of control.

What about the cell viability (H9c2 cardiomyocytes; H9c2, 24 h, 10.0 µM) of the same compound?
The cell viability was 92.9 ± 6.1 % of control.

And the cell viability (H9c2 cardiomyocytes; H9c2, 24 h, 100.0 µM)?
Its cell viability is 30.9 ± 2.9 % of control.

What about the cell viability (H9c2 cardiomyocytes; H9c2, 48 h, 1.0 µM) of the same compound?
Its cell viability is 99.7 ± 3.7 % of control.

And the cell viability (H9c2 cardiomyocytes; H9c2, 48 h, 10.0 µM)?
Its cell viability is 88.6 ± 2.3 % of control.

What about the cell viability (H9c2 cardiomyocytes; H9c2, 48 h, 100.0 µM) of the same compound?
The cell viability was 21.6 ± 2.2 % of control.

What about the “antibacterial activity” value (E. faecalis ATCC 29212) of the same compound?
The value was “not active”.

And the “effect on cells” value ([6]; T98G, at 100 µM)?
Its value is “weak effects”.

And the “effect on cells” value (HT29 cells; HT29, at 100 µM)?
The value was “weak effects”.

And the cell viability ([7]; MCF-7, 24 h, 1.0 µM)?
Its cell viability is 107.6 ± 6.5 % of control.

And the cell viability ([7]; MCF-7, 24 h, 10.0 µM)?
Its cell viability is 77.7 ± 7.5 % of control.

What about the cell viability ([7]; MCF-7, 24 h, 100.0 µM) of the same compound?
Its cell viability is 29.9 ± 0.8 % of control.

And the cell viability ([7]; MCF-7, 48 h, 1.0 µM)?
Its cell viability is 84.6 ± 9.4 % of control.

What about the cell viability ([7]; MCF-7, 48 h, 10.0 µM) of the same compound?
Its cell viability is 76.8 ± 3.8 % of control.

And the cell viability ([7]; MCF-7, 48 h, 100.0 µM)?
Its cell viability is 12.1 ± 2.7 % of control.

What about the cell viability ([8]; 24 h, 1.0 µM) of the same compound?
The cell viability was 101.6 ± 3.1 % of control.

What about the cell viability ([8]; 24 h, 10.0 µM) of the same compound?
Its cell viability is 92.4 ± 3.6 % of control.

What about the cell viability ([8]; 24 h, 100.0 µM) of the same compound?
The cell viability was 23.9 ± 6.2 % of control.

And the cell viability ([8]; 48 h, 1.0 µM)?
Its cell viability is 98.4 ± 4.5 % of control.

What about the cell viability ([8]; 48 h, 10.0 µM) of the same compound?
Its cell viability is 87.4 ± 2.7 % of control.

And the cell viability ([8]; 48 h, 100.0 µM)?
Its cell viability is 13.7 ± 3.2 % of control.

And the cell viability (HaCaT keratinocytes; 24 h, 1.0 µM)?
Its cell viability is 97.2 ± 5.7 % of control.

And the cell viability (HaCaT keratinocytes; 24 h, 10.0 µM)?
The cell viability was 98.6 ± 3.5 % of control.

What about the cell viability (HaCaT keratinocytes; 24 h, 100.0 µM) of the same compound?
The cell viability was 21.5 ± 3.3 % of control.

And the cell viability (HaCaT keratinocytes; 48 h, 1.0 µM)?
Its cell viability is 100.5 ± 3.3 % of control.

And the cell viability (HaCaT keratinocytes; 48 h, 10.0 µM)?
The cell viability was 80.0 ± 0.1 % of control.

What about the cell viability (HaCaT keratinocytes; 48 h, 100.0 µM) of the same compound?
Its cell viability is 11.6 ± 3.5 % of control.

What about the “effect on cells” value (MCF-7 cells; MCF-7, at 100 µM) of the same compound?
The value was “weak effects”.

And the “Growth inhibition, MIC50” value (Candida albicans KMM 455 [9])?
Its value is 10.44 ± 1.07 µM.

What about the MIC50 (Candida albicans KMM 455 [9]) of the same compound?
The MIC50 was 7 to 10 µM (≈ 3.06 to 4.37 µg/mL).

And the “Growth inhibition, MIC50” value [10]?
Its value is 9.38 ± 0.77 µM.

And the MIC50 [10]?
Its MIC50 is 7 to 11 µM (≈ 3.06 to 4.8 µg/mL).

With `COc1c(OC)c(-c2c[nH]c3ccc(O)cc23)c(OC)c(OC)c1-c1c[nH]c2ccccc12` [Compound 8, petromurin C] as the compound, how does the “antibacterial activity” value (S. aureus ATCC 29213) read?
The value was “did not inhibit the growth”.

And the “effectiveness” value ([1]; U251 cells)?
Its value is “not effective”.

And the “Biofilm formation, MIC50” value (Candida albicans KMM 455 [2])?
The value was 24.12 µM and 24.12 ± 3.07 µM.

What about the “Biofilm formation, MIC50” value [3] of the same compound?
Its value is 83.01 µM and 83.01 ± 6.42 µM.

What about the “effect with oxacillin” value ([4]; MRSA S. aureus 66/1, with oxacillin) of the same compound?
The value was “synergistic effect”.

And the IC50 at 24 h [5]?
Its IC50 at 24 h is over 100 µM.

What about the IC50 at 48 h [5] of the same compound?
Its IC50 at 48 h is over 100 µM.

What about the cell viability (H9c2 cardiomyocytes; H9c2, 24 h, 1.0 µM) of the same compound?
Its cell viability is 100.9 ± 1.7 % of control.

What about the cell viability (H9c2 cardiomyocytes; H9c2, 24 h, 10.0 µM) of the same compound?
Its cell viability is 95.9 ± 2.3 % of control.

What about the cell viability (H9c2 cardiomyocytes; H9c2, 24 h, 100.0 µM) of the same compound?
Its cell viability is 57.4 ± 8.5 % of control.

And the cell viability (H9c2 cardiomyocytes; H9c2, 48 h, 1.0 µM)?
Its cell viability is 101.6 ± 2.2 % of control.

What about the cell viability (H9c2 cardiomyocytes; H9c2, 48 h, 10.0 µM) of the same compound?
Its cell viability is 79.8 ± 4.6 % of control.

What about the cell viability (H9c2 cardiomyocytes; H9c2, 48 h, 100.0 µM) of the same compound?
The cell viability was 55.8 ± 5.5 % of control.

And the “antibacterial activity” value (E. faecalis ATCC 29212)?
The value was “did not inhibit the growth”.

What about the “effectiveness” value ([6]; T98G cells) of the same compound?
Its value is “not effective”.

And the IC50 (HT29 cells; read-out: IC50, cell viability)?
The IC50 was 34.8 µM.

What about the cell viability ([7]; MCF-7, 24 h, 1.0 µM) of the same compound?
Its cell viability is 105.4 ± 5.9 % of control.

What about the cell viability ([7]; MCF-7, 24 h, 10.0 µM) of the same compound?
Its cell viability is 92.8 ± 3.0 % of control.

What about the cell viability ([7]; MCF-7, 24 h, 100.0 µM) of the same compound?
Its cell viability is 53.7 ± 6.8 % of control.

And the cell viability ([7]; MCF-7, 48 h, 1.0 µM)?
Its cell viability is 77.7 ± 3.7 % of control.

And the cell viability ([7]; MCF-7, 48 h, 10.0 µM)?
Its cell viability is 70.6 ± 8.5 % of control.

What about the cell viability ([7]; MCF-7, 48 h, 100.0 µM) of the same compound?
The cell viability was 28.6 ± 4.3 % of control.

And the cell viability ([8]; 24 h, 1.0 µM)?
The cell viability was 91.9 ± 9.5 % of control.

What about the cell viability ([8]; 24 h, 10.0 µM) of the same compound?
The cell viability was 81.4 ± 1.0 % of control.

And the cell viability ([8]; 24 h, 100.0 µM)?
The cell viability was 52.0 ± 4.0 % of control.

What about the cell viability ([8]; 48 h, 1.0 µM) of the same compound?
Its cell viability is 95.3 ± 3.4 % of control.

And the cell viability ([8]; 48 h, 10.0 µM)?
Its cell viability is 92.1 ± 2.1 % of control.

And the cell viability ([8]; 48 h, 100.0 µM)?
Its cell viability is 45.7 ± 6.6 % of control.

And the cell viability (HaCaT keratinocytes; 24 h, 1.0 µM)?
The cell viability was 102.7 ± 7.7 % of control.

What about the cell viability (HaCaT keratinocytes; 24 h, 10.0 µM) of the same compound?
Its cell viability is 93.1 ± 6.9 % of control.

What about the cell viability (HaCaT keratinocytes; 24 h, 100.0 µM) of the same compound?
The cell viability was 64.3 ± 1.9 % of control.

And the cell viability (HaCaT keratinocytes; 48 h, 1.0 µM)?
Its cell viability is 95.8 ± 1.9 % of control.

What about the cell viability (HaCaT keratinocytes; 48 h, 10.0 µM) of the same compound?
Its cell viability is 97.7 ± 1.4 % of control.

And the cell viability (HaCaT keratinocytes; 48 h, 100.0 µM)?
Its cell viability is 36.8 ± 7.0 % of control.

And the IC50 (MCF-7 cells; MCF-7 cells, read-out: IC50, cell viability)?
Its IC50 is 94.8 µM.

And the “Growth inhibition, MIC50” value (Candida albicans KMM 455 [9])?
The value was 34.14 ± 2.1 µM.

What about the MIC50 (Candida albicans KMM 455 [9]) of the same compound?
The MIC50 was 26 to 52 µM (≈ 11.6 to 23.1 µg/mL).

And the “Growth inhibition, MIC50” value [10]?
The value was 26.74 ± 1.98 µM.

What about the MIC50 [10] of the same compound?
Its MIC50 is 26 to 52 µM (≈ 11.6 to 23.1 µg/mL).
